In patent US12453709B2, “Compositions and methods for treating autism” (priority 2013, dated 2025):

What was measured:
[1] = system: patients qualified under the DSM-5 definition of autism; assay: Example 4: DSM-V score; format: in vivo, human; design: DSM-V TOTAL / DSM-V social / DSM-V communication / DSM-V relationships / DSM-V behavior: scale not given here; conditions: for DSM V relationships / DSM V communication / DSM V social / DSM V behavior / DSM V TOTAL: PT RS; for DSM V relationships: initial 1; for DSM V communication / DSM V social: initial 5; for DSM V TOTAL: initial 21
Protocol: α-methyl-DL tyrosine (AMPT) was administered to 3 patients. This group of patients was qualified under the DSM-5 definition of autism and treated. The Aberrant Behavior Checklist-Community (ABC-C), Autism Diagnostic Observation Schedule (ADOS), Conners Parent Rating Scale (CPRS), and General Clinical Impressions scale were used to assess the disease. Videos were taken at each visit.

[2] = Study HT 02-121: L1-79 plasma concentrations (pharmacokinetics); format: in vivo; conditions: male, human, open-label 200 mg TID, read-out: plasma concentration at 1-hour post-dose on Day 1
Protocol: The first five patients in each cohort were assigned to receive active medication in an open-label fashion. The patients were treated identically to the randomized patients with the following exceptions: (1) blood samples were drawn at baseline and 1 hour after dosing, and at Week 1, 2, 3 and 4 treatment visits 1 hour after dosing to determine the PK of L1-79, (2) EKGs were assessed at baseline and within 3-days prior to the Week 1, 2, 3 and 4 treatment visits as well as the 1-week and 4-week post-dosing follow-up visits, (3) vital signs, physical exams, and ASD assessments were performed at 1-week postdosing visit, (4) blood and urine samples were drawn at baseline and at Week 1, 2, 3 and 4 treatment visits 1 hour after dosing as well as the 1-week and 4-week post-dosing follow-up visits for safety analyses.
Pharmacokinetics were assessed in the open-label 100 mg and 200 mg TID patients. On Day 1, L-79 concentrations were assessed one-hour post dose. Subsequently, a random L1-79 plasma concentration was assessed at Week 1, Week 2, Week 3 and Week 4.

Compound: CC(N)(Cc1ccc(O)cc1)C(=O)O (racemic) [L1-79, α-methyl-DL-tyrosine]
- DSM-V social ([1]; PT LR, Day 7, initial 9): 5
- DSM-V communication ([1]; PT LR, Day 7, initial 10): 4
- DSM-V relationships ([1]; PT LR, Day 7, initial 11): 4
- DSM-V behavior ([1]; PT LR, Day 7, initial 12): 12
- DSM-V TOTAL ([1]; PT LR, Day 7, initial 42): 27
- DSM-V social ([1]; PT LR, Day 14, initial 9): 3
- DSM-V communication ([1]; PT LR, Day 14, initial 10): 3
- DSM-V relationships ([1]; PT LR, Day 14, initial 11): 3
- DSM-V behavior ([1]; PT LR, Day 14, initial 12): 12
- DSM-V TOTAL ([1]; PT LR, Day 14, initial 42): 21
- DSM-V social ([1]; PT LR, Day 21, initial 9): 2
- DSM-V communication ([1]; PT LR, Day 21, initial 10): 2
- DSM-V relationships ([1]; PT LR, Day 21, initial 11): 2
- DSM-V behavior ([1]; PT LR, Day 21, initial 12): 12
- DSM-V TOTAL ([1]; PT LR, Day 21, initial 42): 18
- DSM-V social ([1]; PT LR, Day 28, initial 9): 2
- DSM-V communication ([1]; PT LR, Day 28, initial 10): 2
- DSM-V relationships ([1]; PT LR, Day 28, initial 11): 2
- DSM-V behavior ([1]; PT LR, Day 28, initial 12): 12
- DSM-V TOTAL ([1]; PT LR, Day 28, initial 42): 18
- DSM V relationships ([1]; Day 7): 0
- DSM V communication ([1]; Day 7): 4
- DSM V social ([1]; Day 7): 3
- DSM V behavior ([1]; Day 7, initial 10): 8
- DSM V TOTAL ([1]; Day 7): 15
- DSM V relationships ([1]; Day 14): 0
- DSM V communication ([1]; Day 14): 1.5
- DSM V social ([1]; Day 14): 1.5
- DSM V behavior ([1]; Day 14, initial 10): 5
- DSM V TOTAL ([1]; Day 14): 8
- DSM V relationships ([1]; Day 21): 0
- DSM V communication ([1]; Day 21): 1.5
- DSM V social ([1]; Day 21): 1
- DSM V behavior ([1]; Day 21, initial 10): 4
- DSM V TOTAL ([1]; Day 21): 6.5
- DSM V relationships ([1]; Day 28): 0
- DSM V communication ([1]; Day 28): 1.5
- DSM V social ([1]; Day 28): 1
- DSM V behavior ([1]; Day 28, initial 10): 3
- DSM V TOTAL ([1]; Day 28): 5.5
- DSM-V communication ([1]; PT WC, Day 7, initial 3): 0
- DSM-V relationships ([1]; PT WC, Day 7, initial 6): 2
- DSM-V social ([1]; PT WC, Day 7, initial 6): 6
- DSM-V behavior ([1]; PT WC, Day 7, initial 11): 9
- DSM-V TOTAL ([1]; PT WC, Day 7, initial 26): 17
- DSM-V communication ([1]; PT WC, Day 14, initial 3): 0
- DSM-V relationships ([1]; PT WC, Day 14, initial 6): 2
- DSM-V social ([1]; PT WC, Day 14, initial 6): 4
- DSM-V behavior ([1]; PT WC, Day 14, initial 11): 8
- DSM-V TOTAL ([1]; PT WC, Day 14, initial 26): 14
- DSM-V communication ([1]; PT WC, Day 21, initial 3): 0
- DSM-V relationships ([1]; PT WC, Day 21, initial 6): 2
- DSM-V social ([1]; PT WC, Day 21, initial 6): 2
- DSM-V behavior ([1]; PT WC, Day 21, initial 11): 8
- DSM-V TOTAL ([1]; PT WC, Day 21, initial 26): 12
- DSM-V communication ([1]; PT WC, Day 28, initial 3): 0
- DSM-V relationships ([1]; PT WC, Day 28, initial 6): 2
- DSM-V social ([1]; PT WC, Day 28, initial 6): 2
- DSM-V behavior ([1]; PT WC, Day 28, initial 11): 7
- DSM-V TOTAL ([1]; PT WC, Day 28, initial 26): 11
- concentration at 1 h [2]: 23 to 1680 ng/mL
